One molecule from patent US9504671B2, “Pharmaceutical compositions of spiro-oxindole compound for topical administration and their use as therapeutic agents” (Xenon Pharmaceuticals Inc., priority 2010, dated 2016) can be followed below.

In test [1] the test system is animal models. Put plainly: animal models, oral dosing (earlier studies). The note with it: oral dose of 25 mg/Kg, previous studies. It is filed as in vivo. An excerpt:
For example, the mildly painful stimuli from scratching are effective in abolishing the itch sensation. In contrast, analgesics such as opioids can generate severe pruritis. The antagonistic interaction between pain and itch can be exploited in pruritis therapy, and current research concentrates on the identification of common targets for future analgesic and antipruritis therapy. […] Accordingly, COMPOUND A, as an enantiomer or a pharmaceutically acceptable salt thereof, can also be useful for treating pruritis.
Following paw withdrawal baseline measurements, animals were randomly divided into 4 different test groups (N=8 animals/group), including a vehicle control group for oral dosage, a vehicle control group for topical dosage, and two treatment groups. For the oral dosage groups, animals were dosed by oral gavages after baseline measurement. […] For the topical dosage groups, 50 mg of the test composition was applied on the ipsilateral ankle and foot. […] Von Frey withdrawal thresholds were measured as the mean of several independent determinations made within 1-2 minutes of each other on the affected paw of each animal. Withdrawal measurements were taken 60 minutes post dosing for the oral dosage group and 30 minutes post-dosing for the topical dosage group, representing their respective peak efficacy time points as determined in previous studies.

In test [2] the test system is STZ-induced neuropathic pain model. Nature of the test: STZ model of diabetic neuropathy, von Frey. It is filed as in vivo, male Sprague-Dawley rats. To be noted: 4% (w/w) topical composition, 50 mg on left foot, 30 minutes post-dosing, p<0.05. An excerpt: This study evaluates the efficacy of a pharmaceutical composition of the invention in the STZ-induced neuropathic pain model in male Sprague-Dawley rats, following acute dosing, as compared with a 5% (w/v) topical Lidocaine (Xylocaine®) and a 1.16% (w/v) topical Diclofenac (Voltaren®). A rodent model of painful peripheral diabetic neuropathy (PDN) that mimics human condition was created by inducing a diabetic state in the rat through the ablation of the insulin producing pancreatic beta cells. A single streptozotocin (STZ) injection destroys beta cells in rats and produces a diabetic state that over time progresses to painful Peripheral Diabetic Neuropathy (PDN).
Streptozotocin (STZ) was dissolved in citrate buffer (20 mM, pH 4.5) and administered at a dose of 60 mg/Kg, intraperitoneal, to induce pancreatic beta-cell death. Blood glucose level was measured once a week following injection, using the AccuSoft Blood Glucose Monitoring System. […] Hyperalgesia and allodynia, which are signs of diabetic neuropathic pain, were monitored using the von Frey test as described below. Von Frey measurements were recorded from both left and right paws. Only those with significant hyperalgesia as determined by reduced threshold, measured in grams, of paw withdrawal to the von Frey filament were enrolled in the study. […] During this time their health status was closely monitored.
The animals were randomly divided into 4 test groups (n=7 animals/group) including a vehicle control, a 5% (w/v) Lidocaine (Xylocaine®), a 1.16% (w/v) Diclofenac (Voltaren®), and a pharmaceutical composition with 4% (w/w) COMPOUND A. After baseline measurement, 50 mg of the test composition was applied on the entire left foot. […] The paw withdrawal thresholds of animals from mechanical tactile stimuli were measured using the Electrovonfrey anesthesiometer (Model 2290, IITC Life Science, Woodland Hills, Calif.). […] The force (g) required to elicit a crisp withdrawal response was recorded before dosing as a baseline measurement, and at 30 minutes post-dosing. […]

Test [3] concerns CCI neuropathic pain model. Nature of the test: efficacy of topical versus oral administration, Chronic Constriction Injury, von Frey. It is filed as in vivo, male Sprague Dawley rats. The note with it: p<0.001 vs vehicle. An excerpt: The Chronic Constriction Injury (CCI) model, an established neuropathic pain model in the rat, is used in this study to compare the levels of efficacy and systemic exposure of COMPOUND A between the topical and oral administration in male rats.
A peripheral neuropathy was induced in rats by placing loose constrictive ligatures around the common sciatic nerve as described by Bennett G J, and Xie Y-K., Pain, (1988) 33: pp. 87-107. Eight-week old male Sprague Dawley rats were anaesthetized with 3.5% isoflurane, and a 3 cm incision was made through the skin and fascia at the mid-thigh level of the animal's left hind leg using a no. 10 scalpel blade. […]
A painful neuropathy was allowed to develop in the ipsilateral leg as determined by lower paw withdrawal thresholds to a mechanical stimulus. Only those with significant hyperalgesia as determined by reduced threshold, measured in grams, to paw withdrawal to the von Frey filament were enrolled in the study.
The paw withdrawal thresholds of animals from mechanical tactile stimuli were measured using the Model 2290 Electrovonfrey anesthesiometer (IITC Life Science, Woodland Hills, Calif.). […] After 15 minutes of accommodation in this enclosure, a von Frey hair was applied perpendicularly to the plantar surface of the ipsilateral hind paws of the animals, with sufficient force, measured in grams, to elicit a crisp response of the paw. […]

Where “and” joins values, the source holds several entries; their conditions need not be identical. Equal entries are not always repeated.

Consider `O=C1N(Cc2ccc(C(F)(F)F)o2)c2ccccc2[C@]12COc1cc3c(cc12)OCO3` [COMPOUND A, (S)-1′-{[5-(trifluoromethyl)furan-2-yl]methyl}spiro[furo[2,3-f][1,3]benzodioxole-7,3′-indol]-2′(1′H)-one], for which the “reversal of pain response” value in test [1] was “approximately half-maximal reversal of pain response”. Besides, the “paw withdrawal threshold of treated paw, percent mean change from baseline (CFB)” value in test [2] was determined as 44.9%. The “paw withdrawal threshold, percent mean change from baseline (CFB)” value is 44.3% and 44% in test [3] (25 mg/Kg oral gavage, 60 minutes post-dosing); 47.1% and 47% in test [3] (8% (w/w) topical, 50 mg on ipsilateral ankle and foot, 30 minutes post-dosing).
